Measurements from article doi:10.1101/2024.06.10.598391v1 (bioRxiv, 2024).

Columns and labels:
[1] = Micelle morphology by negative-stain TEM; type: physicochemical; settings: 5 µM; for Morphology: negative-stain TEM (NanoW), 120 kV, categories by L/D; for Cylinder length / Sphere diameter: negative-stain TEM
[2] = Secondary structure by circular dichroism; type: physicochemical; settings: CD, 40 μM in PBS; for organized secondary structure (α-helix and β-sheet): sum of α-helix and β-sheet; for combined α-helix and random coil content: sum of α-helix and random coil
[3] = tested on: RAW 264.7 (macrophage-like cells - Mφs); assay: Cell viability of LPS-treated Mφs by flow cytometry; type: cell-based, murine; settings: for cell viability relative to untreated cells: 10 µM
[4] = tested on: secreted tumor necrosis factor-α (TNF-α) of LPS-activated RAW 264.7 Mφs; assay: TNF-α secretion of LPS-activated Mφs; type: cell-based, murine; settings: 6 h, ELISA
[5] = tested on: RAW 264.7 (macrophage-like cells - Mφs); assay: Micelle surface attachment and internalization by Mφs, confocal microscopy; type: cell-based, murine; settings: 5 µM, 1:19 FAM-PA:Non-FAM-PA, LPS 0.1 µg/mL
[6] = tested on: RAW 264.7 (macrophage-like cells - Mφs); assay: Micelle association with Mφs by flow cytometry; type: cell-based, murine; settings: 5 µM, 1:19 FAM-PA:Non-FAM-PA
[7] = LPS-treated (0.1 µg/mL) Mφs, six hours, flow cytometry

Substance	Morphology [1]	Cylinder length [1]	Sphere diameter [1]	further results
Ac-HSDAVFTDNYTRLRKQMAVKKYLNSILN-CONH2 [VIP, reference compound]	lacks any particle structure	–	–	organized secondary structure (α-helix and β-sheet) [2]: 49.4%; cytotoxicity ([3]; LPS-treated (0.1 µg/mL) Mφs, up to 5 µM, six hours, flow cytometry): Minimal cytotoxicity; modulation of TNF-α secretion ([4]; 1 µM and 2.5 µM): No appreciable modulation; modulation of TNF-α secretion ([4]; 5 µM and 10 µM): significant TNF-α suppression
Ac-NSDLIATDSYTRMRKQVLANKKFHYLVN-NH2 [^SVIP]	Amorphous aggregates	–	–	organized secondary structure (α-helix and β-sheet) [2]: 46.6%; viability of treated cells ([3]; LPS-treated Mφs, 5 µM, 6 hours (Figure 3a)): remained high
VIP(^SVIP)-KEKEEEEE-CONH2 [Palm2K-VIP-(KE)2E4]	Spheres + Short/Small Cylinders	20 - 300 nm	10 - 20 nm	micelle location on/in Mφs ([5]; 6 hours): cell membranes coated; MFI of micelle-associated Mφs ([6]; 6 hours): greatest Mφ association
VIP(^SVIP)-KEKEEEEE-CONH2 [Palm2K-^SVIP-(KE)2E4]	Spheres + Short/Small Cylinders	50 - 250 nm	10 - 20 nm	–
VIP(^SVIP)-KEKEKEKE-CONH2 [Palm2K-VIP-(KE)4]	Small/Medium Cylinders	100 - 700 nm	–	cell viability relative to untreated cells [3, 7]: 70 - 80%; modulation of TNF-α secretion ([4]; 5 µM and 10 µM): significant TNF-α suppression; micelle location on/in Mφs ([5]; 1 hour): only found along the Mφ cell membrane
VIP(^SVIP)-KEKEKEKE-CONH2 [Palm2K-^SVIP-(KE)4]	Spheres	–	10 - 15 nm	combined α-helix and random coil content [2]: 41.5%
VIP(^SVIP)-KEKEKEKE-CONH2 [PalmK-VIP-(KE)4]	Mostly Large/Long Cylinders	1000 - 9000 nm	–	cell viability relative to untreated cells [3, 7]: 70 - 80%; micelle location on/in Mφs ([5]; 1 hour): only found along the Mφ cell membrane
VIP(^SVIP)-KEKEKEKE-CONH2 [PalmK-^SVIP-(KE)4]	Mostly Large/Long Cylinders	1000 - 9000 nm	–	–
VIP(^SVIP)-KEKEKKKK-CONH2 [Palm2K-VIP-(KE)2K4]	Mostly Spheres	–	10 - 15 nm	combined α-helix and random coil content [2]: 46.5%
VIP(^SVIP)-KEKEKKKK-CONH2 [Palm2K-^SVIP-(KE)2K4]	Small/Medium Cylinders	100 - 400 nm	–	percentage of Mφs associated with fluorophore-labeled micelles ([6]; 1 hour): Mφs preferred to associate
